Assays:
[1] = Aqueous solubility by visual inspection in acetate buffer (pH 5); details: for solubility: sodium acetate buffer, pH 5, aqueous buffer, thermodynamic from solid
Method: For the solubility assessment, acetate buffer (pH 5) was selected as the media of choice to ensure prodrug stability during analysis.
High aqueous solubility was determined by visual inspection of 5 mg solid material in 0.5 mL
sodium acetate buffer solution. This media was selected to ensure stability of prodrugs during
dissolution in 50 mg/mL aqueous media.

[2] = Stability in acetate buffer pH 5.0 at room temperature via HPLC (UV); type: physicochemical
In short: (§1)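 Progesterone prodrugs dissolved at 1 mg/mL in PBS (pH 7.03) or 10 mM acetate buffer (pH 5.0), kept at RT and reinjected over time, HPLC-UV AUC at 254 nm. Percent parent remaining; k from ln(%remaining) vs time, pseudo-first-order t1/2 = 0.693/k; duplicates averaged.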

[3] = Stability in PBS at room temperature via HPLC (UV); type: physicochemical; details: phosphate-buffered saline (DPBS)
In short: as §1

[4] = Formation of progesterone oxime 3 from prodrugs in human plasma at 37 °C over 2 h; type: in vitro ADME; details: 2 h period
Method: Given the greater biological relevance of plasma, we focused on quantifying the formation of progesterone and allopregnanolone oxime in human plasma at 37 °C over a 2 h period. Results for selected progesterone prodrugs are presented in Figure A–C, illustrating the broad range of plasma cleavage rates as a function of promoiety design (see Figure S13 in Supporting Information for complete data set). Complete stability data for synthesized allopregnanolone prodrugs (Figures S18–S20) are provided in the Supporting Information. Given that their trends closely paralleled the progesterone series, they were not discussed in detail in the main text. […] This unexpected result prompted further investigation using computational modeling, described in the following section. […] Higher pK a values were associated with faster and more complete oxime formation, likely due to enhanced H-bonding which could stabilize the reactive syn-conformer. […] For the heterocyclic pyrrolidine and angle-strained series (Figure C), the release rates closely matched the experimentally determined prodrug half-lives (Table ), which were shorter in human plasma than in PBS. […] Although both 20s and 20t are capable of adopting the reactive syn-rotamer, their self-immolation reactivity diverged due to differences in linker geometry. The cyclopropane in 20s induces angle strain that hinders nucleophilic attack, rendering the compound stable under both PBS and plasma conditions. […] This intriguing result warrants further investigation, with follow-up studies currently in progress. Finally, the nucleophilic capacity of the amine tethers in prodrugs 20w–20z were evaluated based on their ability to cyclize in plasma, as detailed in the Supporting Information Figure S13.
1.2 Stability in Plasma and PBS via LCMS
Procaine (positive control) was purchased from Sigma-Aldrich. HPLC grade MeCN, MeOH, H2O, and FA were purchased from Fischer Scientific. Human plasma (cat. No. […]- […]
0102242) were obtained from BIOIVT. DPBS 1X (no calcium, no magnesium, pH = 7.03) was purchased from Thermo Fischer Scientific. Stock solutions were prepared in 100% DMSO, and suitable dilutions of target analytes were prepared in 0.1% FA /MeCN for method development.
For PBS assay Gibco® Dulbecco’s phosphate-buffered saline (DPBS 1X, no calcium, no magnesium, pH = 7.03) was utilized. All experiments were performed in duplicate and results are presented as the average of two experimental replicates.
Procedure for Plasma Stability Assay
Test compounds and positive control (i.e. procaine) were dissolved in DMSO to make a 10 mM stock solution and subsequently diluted to 500 μM in 50% MeCN and PBS. […] The supernatant was transferred to an LC-MS vial and analyzed by LC/MS-MS. […]

[5] = Plasma stability assay at 37 °C via LC-MS/MS, human plasma; type: in vitro ADME;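 further: prodrugs at 3 µM incubated in human plasma at 37 °C, intact prodrug quantified by LC-MS/MS over time, values are means of duplicate runs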
Method: (§2) To address this, prodrug stability was further evaluated in human plasma at 37 °C using liquid chromatography–tandem mass spectrometry (LC-MS/MS). For direct comparison, a parallel screen was conducted in PBS under identical conditions (Table ). To prevent premature degradation prior to LC-MS/MS analysis, acetonitrile containing formic acid was used as a quenching solution to acidify and stabilize the prodrugs in vials. […] This limitation in detection, along with the need for a more uniform and broadly applicable assessment across all compounds, prompted us to monitor the formation of the parent oxime as an alternative readout.
(§3) Stability experiments in human plasma and PBS were performed via liquid chromatography-tandem mass spectrometry (LC-MS/MS) to determine and compare rate of cleavage of progesterone prodrugs as well as selected allopregnanolone prodrugs (3 µM) when incubated at 37 °C. All experiments were performed in duplicate and results are presented as the average of two experimental replicates.

[6] = PBS stability assay at 37 °C via LC-MS/MS; type: physicochemical; details: 37 °C; for half-life at 3 µM: phosphate-buffered saline (DPBS), pH 7.03, PBS
Method: as §2, §3

[7] = pH 5, acetate buffer pH 5.0, RT, 1 mg/mL, HPLC 254 nm, read-out: t1/2 in acetate buffer at RT (Tables S5-S8) (converted)
[8] = pH 5, acetate buffer pH 5.0, rt, read-out: t½: pH 5.0, rt (Table S23) (converted)
[9] = pH 7.03, DPBS pH 7.03, RT, 1 mg/mL, HPLC 254 nm, read-out: t1/2 in PBS buffer at RT (Tables S1-S4) (converted)
[10] = pH 7.03, PBS, rt, read-out: t½: PBS, rt (Table S23) (converted)

SMILES | Solubility pH 5.0, rt ([1]; sodium acetate buffer pH 5, rt, visual inspection) | solubility [1] [µg/mL] | half-life at 1 mg/mL [2, 7] [h] | half-life at 1 mg/mL ([2]; pH 5, acetate buffer pH 5.0, rt, HPLC (UV), read-out: Half-life (t½) pH 5.0 rt (converted)) [h] | half-life at 1 mg/mL [2, 8] [h] | half-life at 1 mg/mL [3, 9] [h] | half-life at 1 mg/mL ([3]; pH 7.03, PBS, rt, HPLC (UV), read-out: Half-life (t½) PBS rt (converted)) [h] | half-life at 1 mg/mL [3, 10] [h] | Formation/release of oxime 3 in human plasma, in words [4] | t1/2 in human plasma at 37 °C (Tables S10-S13, S18) ([5]; 3 µM, LC-MS/MS) | Plasma, 37 °C %rem. at 2h (Table S23) ([5]; 2 h) | half-life at 3 µM ([5]; human, plasma, read-out: Plasma, 37 °C t½ (Table S23) (converted)) [h] | PBS, 37 °C %rem. at 2h (Table S23) ([6]; PBS, 2 h) [%] | half-life at 3 µM ([6]; 3 µM, LC-MS/MS, read-out: t1/2 in PBS at 37 °C (Tables S14-S17) (converted)) [h] | half-life at 3 µM ([6]; read-out: PBS, 37 °C t½ (Table S23) (converted)) [h]
CNCCN(CCN1CCCC1)C(=O)O/N=C(\C)[C@H]1CC[C@H]2[C@@H]3CCC4=CC(=O)CC[C@]4(C)[C@H]3CC[C@]12C.O=C(O)C(F)(F)F [20h] | degrades | < 10000 | 105 | 105 | 105 | 7.23 ± 1.9 | 7.23 | 7.23 | rapid, first-order release |  |  |  |  |  | 
C/C(=N\OC(=O)N(C)CC[C@@H]1CCCN1)[C@H]1CC[C@H]2[C@@H]3CCC4=CC(=O)CC[C@]4(C)[C@H]3CC[C@]12C.O=C(O)C(F)(F)F [20n] |  | > 10000 | > 168 |  | > 168 | > 24 |  | > 24 | low levels of oxime | stable | stable | > 24 | 77 | 26.5 | 26.5

From PMC12516379, “Rotamer-Controlled Self-Immolative Linkers Enable Tunable Release of Neurosteroid Oxime Prodrugs” (ACS Medicinal Chemistry Letters, 2025)
